Test results as given in article PMC8286840, “Identifying SARS-CoV-2 antiviral compounds by screening for small molecule inhibitors of Nsp3 papain-like protease” (Biochemical Journal, 2021).
Where a name gives a salt, the structure may show the parent alone. Read-outs that look alike come from different tables or passages of the source. Where a SMILES comes first, the peptide text is derived from it.

Experiments:
[1] = molecular target: T1, SARS-CoV-2 PLpro (nsp3 1564–1878) (Severe acute respiratory syndrome coronavirus 2, UniProt P0DTD1); test: biochemical; set-up: FRET-quenched peptide (Pro3) cleavage by PLpro, 10 min pre-incubation, slope over 20 min, normalised to no-compound control; details: read-out: % of control remaining
[2] = molecular target: T1, SARS-CoV-2 PLpro (nsp3 1564–1878); test: biochemical; set-up: FRET-quenched peptide (Pro3) cleavage by PLpro, 10 min pre-incubation, slope over 20 min, normalised to no-compound control; details: read-out: % of control remaining; remark: listed apart in the source

## O=C(O)[C@H](Cc1ccc(Nc2nccc3ccncc23)cc1)NC1=C(Br)C(=O)C12CCCCC2 [Zaurategrast]
[1]; Well no.=7838, high concentration screen
  remaining activity at 3.75 µM: 99.7%
[2]; Well no.=7838, low concentration screen
  remaining activity at 1.25 µM: 98.1%

## C[C@H]1CCCC(=O)CCC/C=C/c2cc(O)cc(O)c2C(=O)O1 [Zearalenone]
[1]; Well no.=3148, high concentration screen
  remaining activity at 3.75 µM: 97.8%
[2]; Well no.=3148, low concentration screen
  remaining activity at 1.25 µM: 97.2%

## O=c1ncccn1[C@@H]1O[C@H](CO)[C@@H](O)[C@H]1O [Zebularine]
[1]; Well no.=7818, high concentration screen
  remaining activity at 3.75 µM: 96.3%
[2]; Well no.=7818, low concentration screen
  remaining activity at 1.25 µM: 97%

## C/C1=C\CC(C)(C)/C=C/C(=O)/C(C)=C/CC1 [Zerumbone]
[1]; Well no.=3549, high concentration screen
  remaining activity at 3.75 µM: 98.6%
[2]; Well no.=3549, low concentration screen
  remaining activity at 1.25 µM: 96.6%

## COc1nc(C)cnc1NS(=O)(=O)c1cccnc1-c1ccc(-c2nnco2)cc1 [Zibotentan]
[1]; Well no.=6318, high concentration screen
  remaining activity at 3.75 µM: 98.2%
[2]; Well no.=6318, low concentration screen
  remaining activity at 1.25 µM: 98.5%

## CC(c1cc2ccccc2s1)N(O)C(N)=O (stereo not drawn) [Zileuton]
[1]; Well no.=1764, high concentration screen
  remaining activity at 3.75 µM: 100%
[2]; Well no.=1764, low concentration screen
  remaining activity at 1.25 µM: 102%

## CN(C)C/C=C(/c1ccc(Br)cc1)c1cccnc1 [Zimelidine dihydrochloride]
[1]; Well no.=1534, high concentration screen
  remaining activity at 3.75 µM: 96%
[2]; Well no.=1534, low concentration screen
  remaining activity at 1.25 µM: 96.1%

## O=C1Cc2cc(CCN3CCN(c4nsc5ccccc45)CC3)c(Cl)cc2N1 [Ziprasidone (hydrochloride monohydrate)]
[1]; Well no.=6563, high concentration screen
  remaining activity at 3.75 µM: 90.8%
[2]; Well no.=6563, low concentration screen
  remaining activity at 1.25 µM: 92.6%

## O=C1Cc2cc(CCN3CCN(c4nsc5ccccc45)CC3)c(Cl)cc2N1 [Ziprasidone HCl]
[1]; Well no.=4859, high concentration screen
  remaining activity at 3.75 µM: 93.7%
[2]; Well no.=4859, low concentration screen
  remaining activity at 1.25 µM: 92.1%

## C[C@H](CSC(=O)c1ccccc1)C(=O)N1C[C@@H](Sc2ccccc2)C[C@H]1C(=O)O [Zofenopril calcium]
[1]; Well no.=5564, high concentration screen
  remaining activity at 3.75 µM: 103%
[2]; Well no.=5564, low concentration screen
  remaining activity at 1.25 µM: 102%

## O=P(O)(O)C(O)(Cn1ccnc1)P(=O)(O)O [Zoledronic acid]
[1]; Well no.=1881, high concentration screen
  remaining activity at 3.75 µM: 97.1%
[1]; Well no.=5578, high concentration screen
  remaining activity at 3.75 µM: 98.1%
[2]; Well no.=1881, low concentration screen
  remaining activity at 1.25 µM: 100%
[2]; Well no.=5578, low concentration screen
  remaining activity at 1.25 µM: 102%

## CN(C)CCc1c[nH]c2ccc(C[C@H]3COC(=O)N3)cc12 [Zolmitriptan]
[1]; Well no.=1885, high concentration screen
  remaining activity at 3.75 µM: 97.6%
[1]; Well no.=6507, high concentration screen
  remaining activity at 3.75 µM: 98.2%
[2]; Well no.=1885, low concentration screen
  remaining activity at 1.25 µM: 98%
[2]; Well no.=6507, low concentration screen
  remaining activity at 1.25 µM: 98.3%

## NS(=O)(=O)Cc1noc2ccccc12 [Zonisamide sodium]
[1]; Well no.=1390, high concentration screen
  remaining activity at 3.75 µM: 100%
[2]; Well no.=1390, low concentration screen
  remaining activity at 1.25 µM: 98.4%

## NS(=O)(=O)Cc1noc2ccccc12 [Zonisamide]
[1]; Well no.=1879, high concentration screen
  remaining activity at 3.75 µM: 96.4%
[2]; Well no.=1879, low concentration screen
  remaining activity at 1.25 µM: 94.7%

## O=C(O)Cc1nn(Cc2nc3cc(C(F)(F)F)ccc3s2)c(=O)c2ccccc12 [Zopolrestat]
[1]; Well no.=5825, high concentration screen
  remaining activity at 3.75 µM: 98.9%
[2]; Well no.=5825, low concentration screen
  remaining activity at 1.25 µM: 98.5%

## CO[C@H]1C[C@@H]2CC[C@@H](C)[C@@](O)(O2)C(=O)C(=O)N2CCCC[C@H]2C(=O)O[C@H]([C@H](C)C[C@@H]2CC[C@H](n3cnnn3)[C@H](OC)C2)CC(=O)[C@H](C)/C=C(\C)[C@@H](O)[C@@H](OC)C(=O)[C@H](C)C[C@H](C)/C=C/C=C/C=C/1C [Zotarolimus]
[1]; Well no.=8308, high concentration screen
  remaining activity at 3.75 µM: 91.2%
[2]; Well no.=8308, low concentration screen
  remaining activity at 1.25 µM: 90.2%

## CCCCC[C@H](O)CC(=O)CCc1ccc(O)c(OC)c1 [[6]-Gingerol]
[1]; Well no.=6162, high concentration screen
  remaining activity at 3.75 µM: 99.6%
[2]; Well no.=6162, low concentration screen
  remaining activity at 1.25 µM: 96.6%

## CC(C)C[C@H](NC(=O)[C@H](Cc1ccccc1)NC(=O)CNC(=O)[C@@H](C)NC(=O)[C@@H](N)Cc1ccc(O)cc1)C(=O)O [[D-Ala2]leucine-enkephalin]
[1]
  remaining activity at 3.75 µM: 98.6%
[2]
  remaining activity at 1.25 µM: 101%

## CC[C@H](C)[C@H](NC(=O)[C@@H]1CCCN1C(=O)[C@H](Cc1cnc[nH]1)NC(=O)[C@@H](NC(=O)[C@H](Cc1ccc(O)cc1)NC(=O)[C@@H](NC(=O)[C@H](CCCN=C(N)N)NC(=O)CNC)C(C)C)[C@@H](C)CC)C(=O)O [[Sar1, Ile8]-Angiotensin II (TFA)]
[1]; Well no.=7588, high concentration screen
  remaining activity at 3.75 µM: 92%
[2]; Well no.=7588, low concentration screen
  remaining activity at 1.25 µM: 96%

## C[C@H](N)C(=O)O [_-Alanine]
[1]; Well no.=7747, high concentration screen
  remaining activity at 3.75 µM: 107%
[2]; Well no.=7747, low concentration screen
  remaining activity at 1.25 µM: 103%

## C[C@H](NC(=O)[C@@H](N)CCC(=O)O)C(=O)O [_-L-Glutamyl-L-alanine] (H-Glu-Ala-OH)
[1]; Well no.=7750, high concentration screen
  remaining activity at 3.75 µM: 104%
[2]; Well no.=7750, low concentration screen
  remaining activity at 1.25 µM: 105%

## CC1(C)CCC2=C(O1)c1ccccc1C(=O)C2=O [_-Lapachone]
[1]; Well no.=6166, high concentration screen
  remaining activity at 3.75 µM: 79.2%
[2]; Well no.=6166, low concentration screen
  remaining activity at 1.25 µM: 104%

## NC(=O)c1ccc[n+]([C@@H]2O[C@H](COP(=O)([O-])O)[C@@H](O)[C@H]2O)c1 [_-Nicotinamide mononucleotide]
[1]; Well no.=7735, high concentration screen
  remaining activity at 3.75 µM: 105%
[2]; Well no.=7735, low concentration screen
  remaining activity at 1.25 µM: 102%

## Nc1ncnc2c1ncn2[C@@H]1O[C@H](COP(=O)(O)CP(=O)(O)OP(=O)(O)O)[C@@H](O)[C@H]1O [alpha,beta-Methylene adenosine 5'-triphosphate dilithium]
[1]; Well no.=932, high concentration screen
  remaining activity at 3.75 µM: 98.2%
[2]; Well no.=932, low concentration screen
  remaining activity at 1.25 µM: 101%

## NC(N)=N[C@@H](CCC(=O)O)C(=O)O [alpha-Guanidinoglutaric acid]
[1]; Well no.=669, high concentration screen
  remaining activity at 3.75 µM: 96.1%
[2]; Well no.=669, low concentration screen
  remaining activity at 1.25 µM: 93.5%

## CN1[C@@H](CC(=O)c2ccccc2)CCC[C@H]1C[C@H](O)c1ccccc1 [alpha-Lobeline hydrochloride]
[1]; Well no.=1025, high concentration screen
  remaining activity at 3.75 µM: 102%
[2]; Well no.=1025, low concentration screen
  remaining activity at 1.25 µM: 98.8%

## CC(N)Cc1c[nH]c2ccc(O)cc12 (stereo not drawn) [alpha-Methyl-5-hydroxytryptamine maleate]
[1]; Well no.=895, high concentration screen
  remaining activity at 3.75 µM: 106%
[2]; Well no.=895, low concentration screen
  remaining activity at 1.25 µM: 106%

## Nc1cc(-c2ccncc2)c[nH]c1=O [amrinone]
[1]; Well no.=2146, high concentration screen
  remaining activity at 3.75 µM: 100%
[2]; Well no.=2146, low concentration screen
  remaining activity at 1.25 µM: 102%

## O=C(OCOC(=O)[C@H]1CCCN1C(=O)CCCCC(=O)N1CCC[C@@H]1C(=O)OCOC(=O)OC1CCOCC1)OC1CCOCC1 [amyloid P-IN-1]
[1]; Well no.=7788, high concentration screen
  remaining activity at 3.75 µM: 105%
[2]; Well no.=7788, low concentration screen
  remaining activity at 1.25 µM: 103%

## N[C@@H](CCl)C(=O)O [beta-Chloro-L-alanine hydrochloride]
[1]; Well no.=142, high concentration screen
  remaining activity at 3.75 µM: 105%
[2]; Well no.=142, low concentration screen
  remaining activity at 1.25 µM: 103%

## C[C@]12CC[C@@H]3c4ccc(O)cc4CC[C@H]3[C@@H]1CC[C@@H]2O [beta-Estradiol]
[1]; Well no.=511, high concentration screen
  remaining activity at 3.75 µM: 104%
[2]; Well no.=511, low concentration screen
  remaining activity at 1.25 µM: 107%

## O=C(/C=C/c1ccc(O)cc1)CC(=O)/C=C/c1ccc(O)cc1 [bis-demethoxycurcumin]
[1]; Well no.=4089, high concentration screen
  remaining activity at 3.75 µM: 101%
[2]; Well no.=4089, low concentration screen
  remaining activity at 1.25 µM: 98.7%

## Nc1ncnc2c1ncn2[C@@H]1O[C@@H]2CO[P@@](=O)(O)O[C@H]3[C@@H](O)[C@H](n4cnc5c(N)ncnc54)O[C@@H]3CO[P@@](=O)(O)O[C@H]2[C@H]1O [c-di-AMP]
[1]; Well no.=7914, high concentration screen
  remaining activity at 3.75 µM: 90.2%
[1]; Well no.=8703, high concentration screen
  remaining activity at 3.75 µM: 102%
[2]; Well no.=7914, low concentration screen
  remaining activity at 1.25 µM: 91.4%
[2]; Well no.=8703, low concentration screen
  remaining activity at 1.25 µM: 104%
